Experimental data taken from patent US12605374B2, “Methods for drug screening and compositions useful for the inhibition of cell proliferation and/or cell survival” (The Brigham and Women's Hospital, Inc., priority 2019, dated 2026).

Columns and labels:
[1] = target: T1, recombinant human Topoisomerase I (Homo sapiens, UniProt P11387); assay: Topoisomerase I and DNA binding gel electrophoresis assay; type: biochemical; settings: concentrations up to 100 mM (so in the source), versus DMSO
T1 construct: purchased TopoGEN, Inc. TG2005H
T1 sequence (P11387 1-765): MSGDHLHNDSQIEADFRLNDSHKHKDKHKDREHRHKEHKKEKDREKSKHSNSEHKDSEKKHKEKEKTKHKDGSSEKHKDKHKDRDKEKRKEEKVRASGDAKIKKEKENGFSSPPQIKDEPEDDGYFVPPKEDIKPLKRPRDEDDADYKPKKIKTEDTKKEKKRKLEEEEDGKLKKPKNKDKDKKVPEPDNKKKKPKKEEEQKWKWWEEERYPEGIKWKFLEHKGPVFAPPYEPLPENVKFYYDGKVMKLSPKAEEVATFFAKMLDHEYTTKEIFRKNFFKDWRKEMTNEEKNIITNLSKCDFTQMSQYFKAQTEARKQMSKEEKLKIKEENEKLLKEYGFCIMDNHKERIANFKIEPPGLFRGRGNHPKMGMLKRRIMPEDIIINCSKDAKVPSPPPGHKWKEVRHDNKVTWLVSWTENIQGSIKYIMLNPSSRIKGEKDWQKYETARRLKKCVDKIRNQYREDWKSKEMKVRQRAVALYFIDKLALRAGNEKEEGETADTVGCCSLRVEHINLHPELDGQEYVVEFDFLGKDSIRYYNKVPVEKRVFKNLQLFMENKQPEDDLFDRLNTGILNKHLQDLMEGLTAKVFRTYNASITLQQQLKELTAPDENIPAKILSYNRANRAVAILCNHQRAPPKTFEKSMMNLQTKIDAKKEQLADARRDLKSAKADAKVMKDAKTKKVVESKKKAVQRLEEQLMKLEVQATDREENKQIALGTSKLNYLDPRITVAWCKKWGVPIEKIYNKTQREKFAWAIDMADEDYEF
Experimental: FIG. 12: Topoisomerase I and DNA binding assay for DA5. The effect of DA5 on Topoisomerase-mediated DNA unwinding is measured through a gel electrophoresis assay (see Methods).
0.5 ug of pHOT-1 supercoiled DNA (TopoGEN, Inc. TG2030-2) was combined with 2× Topoisomerase I assay buffer (50 mM Tris-HCL (ph7.9), 1 mM EDTA, 1 mM DTT, 20% (v/v) glycerol, 50 mM NaCl), nuclease free water and either DMSO vehicle control, m-AMSA positive control (100-1000 uM; TopoGEN, Inc. […] TG2005H) was added to treatments corresponding to lanes 3-12 with 2 ul of dilution buffer (5 mM Tris-HCL (pH 7.9), 1 mM EDTA, 1 mM DTT, 50% (v/v) glycerol, 500 mM NaCl) added to control treatments lacking enzyme (lanes 2, 13 and 14). Reactions were mixed and incubated at 37° C. for 30 minutes. Reactions were terminated with the addition of 20 ul nuclease free water and 50 ul of 1-butanol (water-saturated) followed by vortex and centrifugation at 13,000 rpm for 1 minute. The lower aqueous phase was removed and added to 50 ul chloroform/isoamyl alcohol (24/1) and 50 ul of 2×STEB buffer (40% (w/v) sucrose, 100 mM Tris-HCL (pH 8), 1 mM EDTA, 0.5 mg/ml bromophenol blue) followed by mixing and centrifugation at 13,000 rpm for 1 minute. […] The gel was stained with ethidium bromide for 15 minutes followed by de-staining in distilled water for 10 minutes. Gels were exposed and images acquired using the iBrightFL1000 gel documentation system (Invitrogen).

zebrafish embryos = assay: Respiration rate analysis (Seahorse XF24 oxygen consumption); type: in vivo; settings: embryos from 5 hpf, versus DMSO control
Experimental: Analysis of embryonic respiration was performed using a Seahorse XF24 analyzer (Agilent). Embryos at 5 hours post fertilization were arrayed in E3 media at 3 per well in a 24-well standard Seahorse plate using an isolating mesh (as in Stackley et al^72). Each plate contained four replicates of each indicated compound of interest, as well as 4 control wells receiving the equivalent DMSO as contained in the indicated compound solution, and 4 wells with no embryos present to act as a baseline for oxygen content of the media. The sample baseline was read for 5 cycles (3 minute mix, 2 minute wait, 5 minute measure), then compounds were introduced in a single 40-cycle injection phase (3 minute mix, 2 minute wait, 5 minute measure). Measurement data were exported using Seahorse software (Agilent) and averaged over 3 experimental days.

CC[C@@]1(O)C(=O)OCc2c1cc1n(c2=O)Cc2cc3ccccc3nc2-1 [Camptothecin, reference compound]
effect on Topoisomerase-mediated DNA unwinding (gel electrophoresis) [1]: dose-dependent effect on the amount of circular DNA present

CC[C@@H]1/C=C/C=C/C[C@H](C)[C@H](O)[C@](C)(O)C(=O)[C@H](C)[C@@H](O)[C@H](C)C(=O)[C@H](C)[C@@H](O)[C@H](C)/C=C/C(=O)O[C@H]2[C@@H](C)[C@@H](CC1)O[C@@]1(CC[C@@H](C)[C@@H](C[C@H](C)O)O1)[C@@H]2C [oligomycin A, reference compound]
respiration rate (oxygen consumption rate) (zebrafish embryos): exponential reduction in respiration rate stabilizing at a baseline rate
